Reference: PMC4138406, “In vitro and in vivo anti-malarial activity of limonoids isolated from the residual seed biomass from Carapa guianensis (andiroba) oil production” (Malaria Journal, 2014)
pIC50: −log10 of the molar value. ≈ marks a conversion by molar mass, not a printed value. Where “and” joins values, the source holds several entries; their conditions need not be identical. Equal entries are not always repeated. Structures can show the parent of a compound that is named as a salt. Where two headings read alike, the source gives them in different places.

Experiments:
[1] = test system: Plasmodium falciparum K1 strain; assay: In vitro anti-plasmodial assay (micro test), growth inhibition of P. falciparum K1; assay type: cell-based; details: for pIC50: Plasmodium falciparum, read-out: IC50 Plasmodium falciparum K1; for Result Plasmodium falciparum K1: activity class from IC50, K1 strain
Method: Briefly, this procedure involved preparing 5 mg/mL stock solutions of each compound in dimethyl sulfoxide (DMSO). The stock solutions were diluted to provide test solutions having concentrations in the range 0.13-100 μg/mL. Test solutions were transferred to 96-well test plates containing parasitized red blood cells with initial 2% haematocrit and 1% parasitaemia. Each sample was evaluated in duplicate and the test plate was incubated for 48 h at 37°C. After incubation, quantification of parasites was achieved by optical microscopy on blood smears from each well [27].

[2] = test system: Plasmodium berghei NK65 strain; assay: Peters 4-day suppressive test in infected BALB/c mice; assay type: in vivo, Plasmodium berghei in BALB/c mice
Method: Adult BALB/c mice (22 ± 3 g weight) were used for the in vivo anti-malarial tests and received water and food ad libitum. In vivo tests were performed using ‘Guidelines for Ethical Conduct in The Care and Use of Animals of the National Institute for Amazon Research (INPA)’.
Limonoids 3 and 4 were assayed for in vivo anti-malarial activity in the Peters 4-day suppressive test against the Plasmodium berghei NK65 strain in BALB/c female mice, each inoculated with 1 × 10^5 parasitized red blood cells. The mice were randomly divided into groups of five individuals and individual […] evaluation of parasitaemia versus controls (negative control groups were treated with 2% DMSO vehicle and positive control groups with chloroquine) on days 5 and 7 following an established procedure. Mortality was monitored in all groups for four weeks after inoculation. Two independent in vivo experiments were performed.

MRC-5 human fibroblasts = assay: Cytotoxicity assay (AlamarBlue) on MRC-5 human fibroblasts; assay type: cell-based; details: for pIC50: read-out: IC50 Human fibroblasts MRC-5
Method: The MRC-5 cell line of human fibroblasts was grown in Dulbecco’s Modified Eagle’s Medium (DMEM) supplemented with 10% fetal bovine serum, 2 mM glutamine, 100 μg/mL streptomycin and 100 U/mL penicillin, and incubated at 37°C with a 5% atmosphere of CO2. For assays, the cells were plated in 96-well plates (2.5 × 10^4 cells/well) and the AlamarBlue™ assay was performed using a previously described procedure. After incubation for 24 h, compounds 1-5 were individually dissolved in DMSO and the resulting solutions were diluted in culture medium. The resulting dilute solutions of each sample were added to wells at final (well) concentrations of 1.56-100 μg/mL. Control groups had final well concentrations of 0.1% DMSO. The plates were further incubated for 48 h. 3 h before the end of the incubation period, AlamarBlue™ (10 μL) was added to each well. The fluorescent signal was monitored with a multiplate reader using 530-560 nm excitation and 590 nm emission wavelengths.

[3] = test system: FCR-3 strain of P. falciparum; parameters: method as in doi:10.1016/j.tet.2011.12.076; details: read-out: IC50 against the FCR-3 strain of P. falciparum; cited from earlier work
[4] = test system: W2 strain of P. falciparum; details: cited from earlier work
[5] = test system: K1 and FCR-3 strains of P. falciparum; details: earlier studies; read-out: IC50 against the K1 and FCR-3 strains of P. falciparum; cited from earlier work
[6] = test system: W2, D6 and FCR-3 strains of P. falciparum; parameters: method as in doi:10.1016/j.tet.2011.12.076, PMID 9134742, doi:10.1111/j.1744-7348.2003.tb00279.x; details: range over strains; read-out: IC50 against W2, D6 and FCR-3 strains of P. falciparum; cited from earlier work
P. berghei strain ANKA = details: cited from earlier work
[7] = parameters: method as in PMID 12570769; details: cited from earlier work
P. falciparum D6 = test system: P. falciparum D6; parameters: method as in PMID 9134742; details: cited from earlier work
Plasmodium vinckei = test system: Plasmodium vinckei; parameters: method as in PMID 23433124; details: cited from earlier work
[8] = 50 mg/kg/day, vs untreated controls
[9] = 100 mg/kg/day, vs untreated controls

CCN(CC)CCCC(C)Nc1ccnc2cc(Cl)ccc12 (stereo not drawn) [chloroquine diphosphate, reference compound]
pIC50 ([1]; K1, 48 h): 6.48 | Result Plasmodium falciparum K1 [1]: A (0.1 < IC50 ≤ 5 μM = active (A)) | Average survival time ± SD Oral ([2]; 5 mg/kg/day): >40 days | % Parasite inhibition Oral 5th day ([2]; 5 mg/kg/day): 100% | % Parasite inhibition Oral 7th day ([2]; 5 mg/kg/day): 98% | Average survival time ± SD Subcutaneous ([2]; 5 mg/kg/day): >40 days | % Parasite inhibition Subcutaneous 5th day ([2]; 5 mg/kg/day): 99% | % Parasite inhibition Subcutaneous 7th day ([2]; 5 mg/kg/day): 99%

CC(=O)O[C@@H]1C2C(C)(C)C(=O)C=C[C@]2(C)C2CC[C@@]3(C)[C@H](c4ccoc4)C(=O)[C@H]4O[C@]43[C@]2(C)[C@@H]1OC(C)=O (stereo partly drawn) [compound 1, 6α-acetoxyepoxyazadiradione]
pIC50 ([1]; K1 strain, 48 h incubation): 4.81 | Result Plasmodium falciparum K1 [1]: MA (5 < IC50 ≤ 20 μM = moderately active (MA)) | pIC50 (MRC-5 human fibroblasts; MRC5, MRC-5, 48 h): < 3.72

C=C1[C@@H]([C@@]2(C)C=CC(=O)C(C)(C)[C@@H]2CC(=O)OC)CC[C@@]2(C)[C@H](c3ccoc3)OC(=O)[C@H]3O[C@]132 [compound 2, andirobin]
pIC50 ([1]; K1 strain, 48 h incubation): 4.82 | Result Plasmodium falciparum K1 [1]: MA (5 < IC50 ≤ 20 μM = moderately active (MA)) | pIC50 (MRC-5 human fibroblasts; MRC5, MRC-5, 48 h): < 3.69

CC(=O)O[C@@H]1C2C(C)(C)C(=O)C=C[C@]2(C)C2CC[C@@]3(C)[C@H](c4ccoc4)OC(=O)[C@H]4O[C@]43[C@]2(C)[C@@H]1OC(C)=O (stereo partly drawn) [compound 3, 6α-acetoxygedunin]
pIC50 [3]: 5.55 | pIC50 ([1]; K1 strain, 48 h incubation): 5.15 | Result Plasmodium falciparum K1 [1]: MA (5 < IC50 ≤ 20 μM = moderately active (MA)) | pIC50 (MRC-5 human fibroblasts; MRC5, MRC-5, 48 h): < 3.73 | Average survival time ± SD Oral ([2]; 50 mg/kg/day): 20 ± 3 days | % Parasite inhibition Oral 5th day [2, 8]: 40% and 40.2% | % Parasite inhibition Oral 7th day ([2]; 50 mg/kg/day): 34.7% | Average survival time ± SD Subcutaneous ([2]; 50 mg/kg/day): 21 ± 2 days | % Parasite inhibition Subcutaneous 5th day ([2]; 50 mg/kg/day): 34.4% | % Parasite inhibition Subcutaneous 7th day ([2]; 50 mg/kg/day): 16.8% | Average survival time ± SD Oral ([2]; 100 mg/kg/day): 24 ± 3 days | % Parasite inhibition Oral 5th day [2, 9]: 66% and 65.7% | % Parasite inhibition Oral 7th day ([2]; 100 mg/kg/day): 46.3% | Average survival time ± SD Subcutaneous ([2]; 100 mg/kg/day): 22 ± 4 days | % Parasite inhibition Subcutaneous 5th day ([2]; 100 mg/kg/day): 44.2% | % Parasite inhibition Subcutaneous 7th day ([2]; 100 mg/kg/day): 30.4%

CC1(C)C(=O)C=C[C@@]2(C)C1CC(=O)[C@]1(C)C2CC[C@@]2(C)[C@H](c3ccoc3)OC(=O)[C@H]3O[C@]321 (stereo partly drawn) [compound 4, 7-deacetoxy-7-oxogedunin]
pIC50 ([1]; K1, 48 h): 4.68 | Result Plasmodium falciparum K1 [1]: I (IC50 > 20 μM = inactive (I)) | pIC50 (MRC-5 human fibroblasts; MRC5, 48 h): 3.97 | IC50 (MRC-5 human fibroblasts; MRC5, 48 h, read-out: IC50 MRC-5 cells): 47.3 µg/mL | Average survival time ± SD Oral ([2]; 50 mg/kg/day): 20 ± 2 days | % Parasite inhibition Oral 5th day [2, 8]: 19.3% | % Parasite inhibition Oral 7th day ([2]; 50 mg/kg/day): 0% | Average survival time ± SD Subcutaneous ([2]; 50 mg/kg/day): 21 ± 4 days | % Parasite inhibition Subcutaneous 5th day ([2]; 50 mg/kg/day): 29.2% | % Parasite inhibition Subcutaneous 7th day ([2]; 50 mg/kg/day): 0% | Average survival time ± SD Oral ([2]; 100 mg/kg/day): 21 ± 3 days | % Parasite inhibition Oral 5th day [2, 9]: 40% and 40.3% | % Parasite inhibition Oral 7th day ([2]; 100 mg/kg/day): 28.9% | Average survival time ± SD Subcutaneous ([2]; 100 mg/kg/day): 22 ± 2 days | % Parasite inhibition Subcutaneous 5th day ([2]; 100 mg/kg/day): 38.6% | % Parasite inhibition Subcutaneous 7th day ([2]; 100 mg/kg/day): 21.7% | pIC50 ([4]; read-out: IC50 against the W2 strain of P. falciparum): < 4.64 | pIC50 [5]: 5.39 to 5.60

CC1(C)C(=O)C=C[C@@]2(C)C1[C@@H](O)[C@@H](O)[C@]1(C)C2CC[C@@]2(C)[C@H](c3ccoc3)OC(=O)[C@H]3O[C@]321 (stereo partly drawn) [compound 5, 6α-hydroxydeacetylgedunin]
pIC50 ([1]; K1 strain, 48 h incubation): 5.30 | Result Plasmodium falciparum K1 [1]: A (0.1 < IC50 ≤ 5 μM = active (A)) | pIC50 (MRC-5 human fibroblasts; MRC5, MRC-5, 48 h): < 3.66

CC(=O)O[C@@H]1C[C@H]2C(C)(C)C(=O)C=C[C@]2(C)[C@H]2CC[C@@]3(C)[C@H](c4ccoc4)OC(=O)[C@H]4O[C@]43[C@@]21C [compound 6, Gedunin]
pIC50 [6]: 5.60 to 6.40 | suppression of P. berghei in mice (P. berghei strain ANKA; oral doses of 25 or 100 mg/kg/day): did not suppress

CC(=O)O[C@@H]1C2C(C)(C)C(=O)C=C[C@]2(C)C2CC[C@@]3(C)[C@H](c4ccoc4)OC(=O)[C@H]4O[C@]43[C@]2(C)[C@@H]1O (stereo partly drawn) [compound 7, andirolide H]
pIC50 [3]: 5.40

CC(=O)O[C@@H]1[C@H](O)C2C(C)(C)C(=O)C=C[C@]2(C)C2CC[C@@]3(C)[C@H](c4ccoc4)OC(=O)[C@H]4O[C@]43[C@@]21C (stereo partly drawn) [compound 8, 6α-hydroxygedunin]
pIC50 [3]: 4.05

CC1(C)C(=O)C=C[C@@]2(C)C1C[C@@H](O)[C@]1(C)C2CC[C@@]2(C)[C@H](c3ccoc3)OC(=O)[C@H]3O[C@]321 (stereo partly drawn) [compound 9, 7-deacetylgedunin]
stability under physiologic conditions found in mice ([7]; physiologic conditions): unstable | stability under simulated gastric (low pH) conditions ([7]; simulated gastric (low pH)): low stability | IC50 against D6 (P. falciparum D6; D6): 2.6 µg/mL (≈ 5.9 µM) | times less in vitro activity than gedunin (P. falciparum D6; D6 and W2, compared to gedunin): about 65 times | IC50 against W2 [4]: 1.3 µg/mL (≈ 2.95 µM)

CO[C@@H]1CC2C(C)(C)C(=O)C=C[C@]2(C)C2CC[C@@]3(C)[C@H](c4ccoc4)OC(=O)[C@H]4O[C@]43[C@@]21C (stereo partly drawn) [compound 10, 7-deacetyl-7-O-methylgedunin]
inhibition of parasitaemia of P. berghei ANKA in mice (P. berghei strain ANKA; oral, 50 mg/kg/day): 68%

C=C1[C@@H]2CC[C@@]3(C)[C@H](c4ccoc4)OC(=O)C[C@]13O[C@H]1CC(=O)C(C)(C)[C@H](CC(=O)OC)[C@]12C [methyl angolensate]
pIC50 [3]: 4.82 to 4.92

C=C[C@H]1C[N@@]2CC[C@H]1C[C@H]2[C@H](O)c1ccnc2ccc(OC)cc12 [quinine sulfate, reference compound]
pIC50 ([1]; K1 strain, 48 h incubation): 6.52 | Result Plasmodium falciparum K1 [1]: A (0.1 < IC50 ≤ 5 μM = active (A))

C=C[C@H]1C[N@@]2CC[C@H]1C[C@H]2[C@H](O)c1ccnc2ccc(OC)cc12 [quinine]
median effective dose (ED50) (P. berghei strain ANKA; mice infected with P. berghei strain ANKA): 34 mg/kg/day

C[C@H]1[C@H](OC(=O)CCC(=O)[O-])O[C@@H]2O[C@@]3(C)CC[C@H]4[C@H](C)CC[C@@H]1[C@@]24OO3.[Na+] [sodium artesunate]
doses at which infected mice exhibit recrudescence (Plasmodium vinckei): < 80 mg/kg/day
